Measurements: patent US20240299326A1, “METHODS AND COMPOSITIONS FOR TREATING CANCER” (Onconova Therapeutics, Inc., priority 2021, published 2024)
“Also recorded” adds a separate entry of the source.

How the values were obtained:
[1] = system: normal primary keratinocytes; assay: Effect on normal primary keratinocytes after 48 hours exposure, crystal violet staining / phase contrast; type: cell-based; details: FIG. 1
Method: (§1) Panel A. Cells were seeded at high density and exposed to Rigosertib or vehicle control for 48 hours after which cells were fixed and stained with crystal violet. Panel B. Phase contrast images of unfixed cells in culture after given treatment of either control (left) or Rigosertib (1 μM, right).

SCC RDEB16 keratinocytes = assay: Tumor xenograft of SCC RDEB16 keratinocytes, tumor volume by calipers; type: in vivo, Balb/c SCID mice; details: subcutaneous inoculation; dosing after tumors reached 100 mm^3, administered 6 times; harvested day 35; FIG. 2
Method: SCC RDEB16 keratinocytes were inoculated subcutaneously to Balb/c SCID mice. After tumors reached 100 mm^3, vehicle control, Rigosertib or Compound 1 (ATP-competitive inhibitor) were administered 6 times and tumor volume was measured with calipers. Tumors were harvested and photographed at day 35.

[2] = system: RDEB-associated locally advanced/metastatic squamous cell carcinoma (SCC); assay: Phase 2 open-label single arm clinical study, tumor response (RECIST, MRI, clinical exam, histology); type: in vivo, patients
Method: The study had two primary endpoints. […] The second primary endpoint was to evaluate the safety and tolerability of rigosertib in the population. Secondary study endpoints included quality of life and a biomarker analysis performed on archival tissue from all patients. Patients were dosed for up to one year, with trial duration anticipated to be approximately two-and-a-half years.
Intravenous dosing: For continuous IV infusion as Rigosertib, sodium salt concentrate, 75 mg/mL, was formulated to contain 75 mg of Rigosertib sodium salt per mL (equivalent to 75 mg of Rigosertib sodium per mL) as a sterile solution in polyethylene glycol 400 (PEG 400) containing a small amount of sodium hydroxide for pH adjustment. Rigosertib.Na 75 mg/mL was packaged in single-use glass vials with Teflon-lined rubber stoppers containing 24 mL of drug product (1800 mg). Just prior to dosing, the Rigosertib concentrate (i.e. 1 glass vial, 24 mL) was diluted to a final volume of 500 ml in 0.9% sodium chloride for injection.
Efficacy Assessments: Overall response rate (ORR) was defined as the proportion of patients who achieved either a CR or a PR. Responses of complete remission (CR), partial remission (PR), mCR, SD, failure, and PD were determined by RECIST criteria. The number and percent of patients with CR, PR, mCR, SD, Failure or PD were summarized.
Response per RECIST criteria: Efficacy assessments included an initial tumor assessment at week 12 (±3 days) after first dose. Further tumor assessments were completed every 12 weeks (±3 days). Study evaluations were performed according to RECIST 1.1 criteria. High resolution CT with oral or IV contrast or contrast-enhanced MRI were used as imaging modalities for assessing radiographic tumor response. Screening/Baseline assessments were within 4 weeks of first dose of study drug. Brain MRI was used as an imaging method for evaluating CNS metastasis, and an assessment was required during screening/baseline and End of Therapy or as clinically indicated.
Target lesions: When more than one measurable lesion was present at baseline, all lesions up to a maximum of 5 lesions total (and a maximum of two lesions per site), representative of all involved sites, were investigated as target lesions and are recorded and measured at baseline. Target lesions were selected on the basis of size (lesions with the longest diameter) and were representative of all involved sites. A sum of the diameters (longest for non-nodal lesions, short axis for nodal lesions) for all target lesions were calculated and reported as the baseline sum diameters. If lymph nodes were included in the sum, only the short axis was added into the sum. The baseline sum diameters were used as reference to characterize any objective tumor regression in the measurable dimension of the disease. […]

RDEB SCC keratinocytes = assay: Cell death of RDEB SCC keratinocytes after 48 hours exposure, crystal violet staining / phase contrast; type: cell-based
Method: as §1

[3] = Phase 2 open-label single arm clinical study, safety and tolerability; type: in vivo, patients; details: single RDEB patient, CIV infusions
Method: A phase 2, open-label single arm was conducted. The study was designed to assess the efficacy and safety of Rigosertib in patients with recessive dystrophic epidermolysis bullosa (RDEB)-associated locally advanced/metastatic squamous cell carcinoma (SCC).
In addition to the assessment of safety and tolerability, efficacy was measured by the overall response rate as assessed by RECIST. Patients were treated until RECIST progression criteria were met (i.e. 20% increase in tumor diameter or appearance of new malignant lesions) for 12 consecutive months or until an unacceptable toxicity or intolerance, or until remission.
The study had two primary endpoints. The first was to determine the anti-tumor activity of rigosertib in RDEB patients with advanced SCC who had failed prior standard of care through the overall response rate (ORR), defined as the proportion of patients who achieved either a complete response (CR) or a partial response (PR). The second primary endpoint was to evaluate the safety and tolerability of rigosertib in the population. Secondary study endpoints included quality of life and a biomarker analysis performed on archival tissue from all patients. Patients were dosed for up to one year, with trial duration anticipated to be approximately two-and-a-half years. […]

[4] = one RDEB patient, intravenous rigosertib, 12 week MRI and clinic visit

With COc1cc(OC)c(/C=C/S(=O)(=O)Cc2ccc(OC)c(NCC(=O)O)c2)c(OC)c1 [Rigosertib, (E)-2-(5-((2,4,6-trimethoxystyrylsulfonyl)methyl)-2-methoxyphenylamino)acetic acid] the “effect on normal primary keratinocytes” value [1] was “without affecting normal primary keratinocytes”, the “tumor growth (tumor volume) of RDEB SCC keratinocytes in vivo” value (SCC RDEB16 keratinocytes) was “inhibits RDEB SCC keratinocyte grown in vivo” and the “metastatic disease after trial completion” value ([2]; RDEB patient, 17 treatment cycles) was “without signs of metastatic disease”. For the same compound, the “remission of target lesions after trial completion” value ([2]; RDEB patient, 72 hr CIV infusions 1800 mg/24 h days 1-3, 17 treatment cycles) was “sustained clinical and histological remission of all target lesions”, the “histology of biopsied target lesions (left hand, right elbow)” value ([2]; V25 (day 169-175)) was “no histological signs of malignancy” and the “resolution of squamous cell target lesions (left hand), clinical exam and MRI” value [2, 4] was “complete resolution of two of three squamous cell target lesions”. For the same compound, the “third target lesion (right elbow)” value [2, 4] was “reduction in the third target lesion”, the “cell death in RDEB SCC keratinocytes” value (RDEB SCC keratinocytes; 48 hours exposure, Rigosertib 1 μM in phase contrast images, FIG. 1) was “induces cell death” and the “specificity / therapeutic window separating tumor and normal cells” value (RDEB SCC keratinocytes; preclinical models, RDEB SCC keratinocytes vs normal cells) was “largest therapeutic window separating tumor and normal cells”. The observed adverse effects [3] was “CTCAE grade II irritative cystitis; also recorded: alopecia; also recorded: recurrent episode of bacteriaemia; also recorded: nausea; also recorded: increased lesional pain; also recorded: amenorrhea” and the safety and tolerability [3] was “favorable”.
